# Experimental data reported in patent publication US20230312550A1, “N-(2-(4-CYANOTHIAZOLIDIN-3-YL)-2-OXOETHYL)-QUINOLINE-4-CARBOXAMIDES” (AstraZeneca AB, priority 2020, published 2023).
# pIC50, pKd: −log10 of the molar value.
# Columns and labels:
# [1] = target: hFAP (M39-A757) (Homo sapiens (Human), UniProt Q12884); test: hFAP binding assay (surface plasmon resonance); conditions: SPR, 20° C.; for hFAP Binding assay k(off) / hFAP Binding assay k(on): single cycle kinetics; for pKd: n = 1 or geometric mean n = 2-4
# Sequence of hFAP (M39-A757) (Q12884 39-757): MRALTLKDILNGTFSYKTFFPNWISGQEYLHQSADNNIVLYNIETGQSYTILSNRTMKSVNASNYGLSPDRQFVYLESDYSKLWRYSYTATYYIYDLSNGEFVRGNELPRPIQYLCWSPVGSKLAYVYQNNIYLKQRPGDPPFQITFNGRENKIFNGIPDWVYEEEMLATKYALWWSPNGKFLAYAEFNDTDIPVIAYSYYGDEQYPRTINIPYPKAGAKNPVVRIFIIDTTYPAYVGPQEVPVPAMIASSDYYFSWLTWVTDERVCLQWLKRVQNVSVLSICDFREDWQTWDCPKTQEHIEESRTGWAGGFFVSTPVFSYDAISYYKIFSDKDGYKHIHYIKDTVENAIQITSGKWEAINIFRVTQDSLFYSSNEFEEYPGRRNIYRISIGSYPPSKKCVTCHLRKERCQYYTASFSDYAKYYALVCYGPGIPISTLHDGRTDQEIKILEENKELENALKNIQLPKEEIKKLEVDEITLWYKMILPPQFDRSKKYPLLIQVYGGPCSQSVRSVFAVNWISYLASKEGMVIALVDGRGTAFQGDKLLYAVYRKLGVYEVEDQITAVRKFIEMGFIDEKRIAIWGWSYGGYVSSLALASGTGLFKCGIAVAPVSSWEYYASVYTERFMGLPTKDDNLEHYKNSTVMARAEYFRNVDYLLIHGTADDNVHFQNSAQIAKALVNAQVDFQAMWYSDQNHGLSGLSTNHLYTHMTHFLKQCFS
# Experimental: Compounds were tested in a direct binding assay using 8K surface plasmon resonance biosensor (GE Healthcare) at 20° C. Immobilization of hFAP (M39-A757) on a CMD200M sensor chip (Xantec) was performed using standard amine coupling procedure in immobilization buffer (10 mM HEPES, 150 mM NaCl, 0.05% Tween20, pH 7.4). The surface was washed with 10 mM NaOH, 1M NaCl before being activated with EDC/NHS (GE Healthcare), followed by immobilization of hFAP (in 10 mM Acetate pH 5.0). Finally, the surface was deactivated by ethanolamine. Immobilization levels of hFAP were around 4000-6000 RU. The reference spot was treated as described, omitting the injection of hFAP. Compound concentration series were injected over the immobilized protein in increasing concentrations (2-500 nM) using single cycle kinetics in running buffer (20 mM TRIS, 150 mM NaCl, 0.05% Tween20, 1% DMSO, pH 7.4). Interaction models were fitted globally to the experimental traces, enabling determination of kon, koff and Kd.
# [2] = Kinetic solubility; conditions: kinetic from dmso stock
# Experimental: Kinetic solubility was measured as described in Comput Aided Mol Des 2015, 29, 795.
# [3] = target: human Fibroblast activation protein alpha (hFAP) (Homo sapiens (Human), UniProt Q12884); test: hFAP inhibition assay (tight binders); format: biochemical; conditions: Ala-Pro-AMC 20 μM, n = 1 or geometric mean n = 2-6; further: hFAP 2.4 pM
# Sequence of human Fibroblast activation protein alpha (hFAP) (Q12884 38-760): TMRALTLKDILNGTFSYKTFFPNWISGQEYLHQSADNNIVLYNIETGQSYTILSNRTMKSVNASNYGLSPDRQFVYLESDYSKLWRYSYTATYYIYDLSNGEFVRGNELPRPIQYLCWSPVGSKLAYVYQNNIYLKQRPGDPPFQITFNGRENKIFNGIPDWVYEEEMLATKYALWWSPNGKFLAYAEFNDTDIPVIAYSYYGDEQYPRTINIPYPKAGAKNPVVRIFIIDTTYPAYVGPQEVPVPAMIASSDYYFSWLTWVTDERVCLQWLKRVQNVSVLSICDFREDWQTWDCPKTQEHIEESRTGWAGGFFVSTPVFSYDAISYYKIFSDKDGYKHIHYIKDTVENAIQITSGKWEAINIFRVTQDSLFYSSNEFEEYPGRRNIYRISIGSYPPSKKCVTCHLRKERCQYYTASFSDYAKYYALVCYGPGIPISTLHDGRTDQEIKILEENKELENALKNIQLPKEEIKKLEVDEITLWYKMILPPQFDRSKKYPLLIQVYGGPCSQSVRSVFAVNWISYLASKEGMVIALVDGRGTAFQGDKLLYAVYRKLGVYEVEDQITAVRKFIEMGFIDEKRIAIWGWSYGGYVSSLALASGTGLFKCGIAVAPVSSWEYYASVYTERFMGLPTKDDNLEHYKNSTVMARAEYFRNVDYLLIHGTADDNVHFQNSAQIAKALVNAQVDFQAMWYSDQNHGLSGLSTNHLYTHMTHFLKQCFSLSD
# Experimental: The plates were read on a PHERAstar® reader with excitation 340 nm and emission 460 nm. Data were analyzed in Genedata Screener®. IC50 values were determined by plotting % inhibition versus log compound concentration and using a one site dose response model.
# [4] = Metabolic stability in human liver microsomes (HLM); conditions: human
# Experimental: Metabolic stability in HLM was measured as described in J Comput Aided Mol Des 2015, 29, 795.
# [5] = target: Prolyl endopeptidase, Prolyl Oligopeptidase (hPREP) (Homo sapiens (Human), UniProt P48147); test: hPrep inhibition assay; format: biochemical; conditions: hPREP 0.6 nM, Z-Gly-Pro-amino-methylcoumarin 50 μM; read-out: PREP IC50
# Sequence of Prolyl endopeptidase, Prolyl Oligopeptidase (hPREP) (P48147 whole entry): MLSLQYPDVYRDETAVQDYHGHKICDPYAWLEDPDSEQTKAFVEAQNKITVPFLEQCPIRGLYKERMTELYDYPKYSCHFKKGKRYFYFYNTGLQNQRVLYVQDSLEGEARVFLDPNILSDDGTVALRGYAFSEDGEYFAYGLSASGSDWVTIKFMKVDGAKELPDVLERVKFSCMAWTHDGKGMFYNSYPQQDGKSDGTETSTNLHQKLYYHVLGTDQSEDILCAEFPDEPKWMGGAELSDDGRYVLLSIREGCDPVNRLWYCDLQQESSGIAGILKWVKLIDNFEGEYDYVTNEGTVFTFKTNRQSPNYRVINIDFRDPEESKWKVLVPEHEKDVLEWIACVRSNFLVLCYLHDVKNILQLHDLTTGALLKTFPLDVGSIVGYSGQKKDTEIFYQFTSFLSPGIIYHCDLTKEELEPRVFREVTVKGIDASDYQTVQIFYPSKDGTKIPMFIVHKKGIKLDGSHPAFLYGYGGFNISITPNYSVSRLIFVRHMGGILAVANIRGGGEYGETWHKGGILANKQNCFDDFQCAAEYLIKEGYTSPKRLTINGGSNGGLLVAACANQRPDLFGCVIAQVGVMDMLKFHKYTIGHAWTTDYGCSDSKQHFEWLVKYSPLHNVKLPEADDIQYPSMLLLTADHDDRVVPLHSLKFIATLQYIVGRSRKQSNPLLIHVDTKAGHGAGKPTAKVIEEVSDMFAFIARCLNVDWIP
# Procedure, shortened: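 Fluorogenic read-out (340 nm excitation, 460 nm emission) after 20 min at rt, using 50 μM final Z-Gly-Pro-aminomethylcoumarin and 0.6 nM final enzyme, following 15 min compound preincubation. Buffer pH 7.5 with glutathione and Triton X-100. IC50 via one-site model on % inhibition vs log concentration.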
# [6] = target: FAP (Homo sapiens (Human), UniProt Q12884); test: hFAP inhibition assay; format: biochemical; conditions: hFAP […], Ala-Pro-AMC 20 μM; n = 1 or geometric mean n = 2-3
# Sequence of FAP (Q12884 38-760): as the sequence (Q12884 38-760) above
# Procedure, shortened: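 Compounds (10-point, 3-fold dilutions from 50 μM top) were preincubated 15 min at rt in the dark with 0.48 nM hFAP in pH 7.4 Tris/NaCl/Chaps buffer. Reaction was started with substrate (40 μM solution) and ran 30 min at rt. Read by fluorescence (340/460 nm); IC50 from one-site fit.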
# [7] = Metabolic stability in rat hepatocytes (rHep); conditions: n = 1 or geometric mean of n = 2-3
# [8] = Solubility, kinetic solubility, n = 1 or average of n = 2-3
# [9] = HLM CLint, n = 1 or average of n = 2-3
Compound,hFAP Binding assay k(off) [1] [s⁻¹],hFAP Binding assay k(on) [1] [M⁻¹ s⁻¹],pKd [1],"solubility [2, 8] [µM]",pIC50 [3],"microsomal CLint [4, 9] [µL/min/mg]",pIC50 [5],pIC50 [6],rHep CLint [7] [μL/min/1E6],solubility [2] [µM],microsomal CLint [4] [µL/min/mg]
"CC[C@H]1COCCN1c1ccc2nccc(C(=O)NCC(=O)N3CSC[C@H]3C#N)c2c1 [Example 106, N-(2-((R)-4-Cyanothiazolidin-3-yl)-2-oxoethyl)-6-((S)-3-ethyl-morpholino)quinoline-4-carboxamide]",0.00014,1800000,10.12,700,10.10,47,6.28,9.64,21,–,–
"N#C[C@@H]1CSCN1C(=O)CNC(=O)c1ccnc2ccc(N3C[C@@H]4[C@H](C3)[C@H]4C(F)(F)F)cc12 [Example 208, N-(2-((R)-4-Cyanothiazolidin-3-yl)-2-oxoethyl)-6-((1R,5S,6R)-6-(trifluoromethyl)-3-azabicyclo[3.1.0]hexan-3-yl)quinoline-4-carboxamide]",0.00026,5600000,10.34,1.6,9.96,72,6.68,9.66,12,–,–
"CC1(C)CCN(c2ccc3nccc(C(=O)NCC(=O)N4CSC[C@H]4C#N)c3c2)C1 [Example 48, (R)—N-(2-(4-Cyanothiazolidin-3-yl)-2-oxoethyl)-6-(3,3-dimethylpyrrolidin-1-yl)quinoline-4-carboxamide]",0.000089,1400000,10.17,18,9.96,89,6.77,9.54,51,–,–
"C[C@@H]1COC[C@@H](C)N1c1ccc2nccc(C(=O)NCC(=O)N3CSC[C@H]3C#N)c2c1 [Example 105, N-(2-((R)-4-Cyanothiazolidin-3-yl)-2-oxoethyl)-6-((3R,5R)-3,5-dimethyl-morpholino)quinoline-4-carboxamide]",0.000068,890000,10.09,> 1000,10.06,180,6.23,9.43,18,–,–
"N#C[C@@H]1CSCN1C(=O)CNC(=O)c1ccnc2ccc(N3CC4(CCC4)C3)cc12 [Example 17, (R)—N-(2-(4-Cyanothiazolidin-3-yl)-2-oxoethyl)-6-(2-azaspiro[3.3]heptan-2-yl)quinoline-4-carboxamide]",0.00012,8300000,10.82,–,10.07,–,6.80,9.66,16,250,18
"COC[C@@H]1CCCN1c1ccc2nccc(C(=O)NCC(=O)N3CSC[C@H]3C#N)c2c1 [Example 212, N-(2-((R)-4-Cyanothiazolidin-3-yl)-2-oxoethyl)-6-((S)-2-(methoxymethyl)-pyrrolidin-1-yl)quinoline-4-carboxamide]",0.00034,3300000,10.00,16,9.59,110,6.48,9.54,57,–,–
"N#C[C@@H]1CSCN1C(=O)CNC(=O)c1ccnc2ccc(N3CCC4(CC4)C3)cc12 [Example 49, (R)—N-(2-(4-Cyanothiazolidin-3-yl)-2-oxoethyl)-6-(5-azaspiro[2.4]heptan-5-yl)quinoline-4-carboxamide]",0.00017,8800000,10.70,–,10.39,–,6.47,9.72,48,13,58

# Further lines, with some results ahead:
hFAP Binding assay k(off) [1] [s⁻¹],hFAP Binding assay k(on) [1] [M⁻¹ s⁻¹],pKd [1],"solubility [2, 8] [µM]",pIC50 [3],"microsomal CLint [4, 9] [µL/min/mg]",pIC50 [5],pIC50 [6],rHep CLint [7] [μL/min/1E6],Compound,solubility [2] [µM],microsomal CLint [4] [µL/min/mg]
0.0002,5900000,10.31,110,10.00,200,6.96,9.70,190,"C[C@@H]1CCCN1c1ccc2nccc(C(=O)NCC(=O)N3CSC[C@H]3C#N)c2c1 [Example 211, N-(2-((R)-4-cyanothiazolidin-3-yl)-2-oxoethyl)-6-((R)-2-methylpyrrolidin-1-yl)quinoline-4-carboxamide]",–,–
0.00017,1700000,10.00,160,9.85,210,7.07,9.66,120,"N#C[C@@H]1CSCN1C(=O)CNC(=O)c1ccnc2ccc(N3CCCC[C@H](F)C3)cc12 [Example 60, N-(2-((R)-4-Cyanothiazolidin-3-yl)-2-oxoethyl)-6-((S)-3-fluoroazepan-1-yl)quinoline-4-carboxamide]",–,–
–,–,10.48,26,10.19,46,6.48,9.66,130,"N#C[C@@H]1CSCN1C(=O)CNC(=O)c1ccnc2ccc(N3CC4CC4C3)cc12 (stereo partly drawn) [Example 206, 6-(3-Azabicyclo[3.1.0]hexan-3-yl)-N-(2-((R)-4-cyanothiazolidin-3-yl)-2-oxoethyl)quinoline-4-carboxamide]",–,–
0.00047,6700000,10.26,49,9.77,150,7.00,9.55,110,"C[C@H]1CCCN1c1ccc2nccc(C(=O)NCC(=O)N3CSC[C@H]3C#N)c2c1 [Example 65, N-(2-((R)-4-Cyanothiazolidin-3-yl)-2-oxoethyl)-6-((S)-2-methylpyrrolidin-1-yl)quinoline-4-carboxamide]",–,–
–,–,10.21,670,10.22,47,6.41,9.68,26,"C[C@@H]1CCN(c2ccc3nccc(C(=O)NCC(=O)N4CSC[C@H]4C#N)c3c2)CCO1 [Example 61, N-(2-((R)-4-Cyanothiazolidin-3-yl)-2-oxoethyl)-6-((R)-7-methyl-1,4-oxazepan-4-yl)quinoline-4-carboxamide]",–,–
0.00011,540000,9.85,5.9,9.72,> 300,6.66,9.36,160,"N#C[C@@H]1CSCN1C(=O)CNC(=O)c1ccnc2ccc(N3CCC[C@H]3C(F)(F)F)cc12 [Example 56, N-(2-((R)-4-Cyanothiazolidin-3-yl)-2-oxoethyl)-6-((S)-2-(trifluoromethyl)-pyrrolidin-1-yl)quinoline-4-carboxamide]",–,–
0.00010,3000000,10.48,> 1000,9.96,54,6.24,9.51,23,"C[C@H]1COC[C@H](C)N1c1ccc2nccc(C(=O)NCC(=O)N3CSC[C@H]3C#N)c2c1 [Example 103, N-(2-((R)-4-Cyanothiazolidin-3-yl)-2-oxoethyl)-6-((3S,5S)-3,5-dimethyl-morpholino)quinoline-4-carboxamide]",–,–
0.000042,250000,10.03,230,9.72,100,6.68,9.39,26,"N#C[C@@H]1CSCN1C(=O)CNC(=O)c1ccnc2ccc(N3CC(F)(c4ccccc4)C3)cc12 [Example 182, (R)—N-(2-(4-Cyanothiazolidin-3-yl)-2-oxoethyl)-6-(3-fluoro-3-phenyl-azetidin-1-yl)quinoline-4-carboxamide]",–,–
